Measured values: patent publication US20220280581A1, “BENEFICIAL BACTERIA AND SECRETORY IMMUNOGLOBULIN A” (priority 2019, published 2022)

Legend:
[1] = test system: Caco-2 colonic cells co-cultured with HT29-MTX E12 cells; assay: Bacterial adherence to colonocyte co-cultures; format: cell-based, human
Protocol: (§1) Mammalian cell culture binding assays: Caco-2 colonic cells were co-cultured with HT29-MTX E12 cells at a ratio of 3:1 and seeded at a density of 5×10^4 cells/well in 24-well plates, maintained as described above. On day 1 post-confluence, medium was removed, the cells washed once with PBS, and DMEM without FBS or antibiotics was added prior to binding assay. Bacteria were prepared as described above, with or without SIgA and resuspended in PBS at 1×10^7 CFU/mL. 4×10^5 CFU were added to the colonocytes and the plate was centrifuged at 600×g for 5 min to ensure bacteria association with the cells. After 2 h of incubation at 37° C. in 5% CO2, medium was removed and saved for cytokine analysis. Cells were washed once with PBS, and to one set of replicates, cells were lysed with 0.5% Triton X-100 and serial dilutions of the cell suspensions were plated on MRS and incubated anaerobically at 37° C. overnight to test viability. To a second set of replicates, TRIzol (15596018; Life Technologies) was added directly to washed cells for RNA extraction.

[2] = Protection from simulated gastric digestion in vitro (pepsin, pancreatin): viability by CFU plating and live/dead flow cytometry; settings: for Slope (CFU/% SIgA): regression of viable CFU post-digestion on SIgA association
Protocol: (§2) Flow cytometry and immunofluorescence: To measure binding cells were fixed using 4% w/v paraformaldehyde for 30 min, washed with PBS, then incubated with 1% bovine serum albumin (BSA) blocking buffer for 1 h. Cells were stained with 1/100 dilution SYTOT™ 9 (S34854, ThermoFisher) for live cells and goat anti-human IgA conjugated to Alexa 647 fluorophore using 1/50 dilution in 1% BSA (ab96998, Abcam). For flow cytometry, all samples were acquired and analyzed on a FACScan flow cytometer (BD Biosciences, Mountain View, Calif.) using the CellQuest software program. For live/dead analyses following in vitro digestion, cells were stained with SYTOT™ 9 (1/100 dilution) for live cells and propidium iodine (1/1000 dilution) for dead cells or cells with compromised membranes.
Protection from digestion using an in vitro model. To determine the extent to which the SIgA-glycan-mediated-bacterial complexes that included the Ig-bound secretory component (SC) where able to protect bacteria and SIgA from proteolytic degradation, an in vitro model was used. Simulated gastric digestion was performed by resuspending bacteria in 200 ul of 0.1% porcine pepsin (Sigma—Aldrich, St. Louis, Mo.) in PBS at pH 4. Samples were placed in an incubating shaker (New Brunswick Scientific, Edison, N.J.) at 140 rpm at 37° C. for 15 min. Cells were then pelleted and resuspended in 200 ul of 0.04% pancreatin (Sigma— Aldrich) in PBS pH 7, and the samples placed in the incubator shaker at 140 rpm at 37° C. for 5 min. Bacteria were pelleted and washed twice with PBS to remove residual enzymes, then evaluated for viability through CFU serial dilution and spot plating, and with live/dead flow cytometry analysis.

pooled human milk SIgA [3] = assay: Binding of SIgA to bacteria by flow cytometry; settings: 100 μg SIgA to 1e6 cfu bacteria
pooled human milk SIgA [4] = assay: Binding of SIgA to bacteria by flow cytometry; settings: for binding of a heterogeneous pool of SIgA: 0-1000 μg SIgA per 1e7 CFU; for association to SIgA when first grown on 2′FL: 1% 2′FL in the final media
Protocol: Binding of sIgA to bacteria. Bacteria from Table 1 were resuspended in 0.8% saline at a concentration of 1×10^7 CFU/mL. SIgA was then added at 0, 10, 100, 500 and 1000 μg per 1×10^7 colony forming units (CFU) of bacteria and incubated at 24° C. for 30 min. Following incubation, bacteria were pelleted at 14000×g for 4 min and washed with saline twice to remove non-adherent SIgA.
as §2

SIgA = assay: Loss of SIgA-bacteria association after deglycosylation; format: binding
[5] = test system: colonocytes (Caco-2 / HT29-MTX E12 co-culture); assay: Colonocyte barrier function and immune gene expression (RT-qPCR); format: cell-based, human; settings: 1000 μg SIgA per 1e7 CFU vs no SIgA
Protocol: as §1
Mammalian cell culture RT-qPCR for gene expression: Total RNA from mammalian co-culture samples were extracted via the TRIzol method. Total RNA (1 μg) was treated with Turbo DNAse (EN0521; Thermo Fisher) to remove genomic DNA, then used for reverse transcription producing cDNA, performed according to manufacturer protocol (High Capacity Complementary DNA Reverse Transcription Kit; Applied Biosystems). Gene list and primer sequences can be found in Table 2. Real-time PCR was performed with the Quantistudio 3 qPCR thermocycler (Applied Biosystems) using SyberGreen master mix (Life Technologies). Actin and GADPH were used as house-keeping genes. Analysis was performed using Quantistudio Design and Analysis Software v.1.4.3.

Bifidobacterium bifidum SC555
Slope (adherent CFU/% SIgA association) ([1]; substrate 2'FL): 16.9 adherent CFU/% SIgA associatio
Slope (adherent CFU/% SIgA association) ([1]; substrate all): 896.4 adherent CFU/% SIgA associatio
Slope (adherent CFU/% SIgA association) ([1]; substrate glucose): 2288.0 adherent CFU/% SIgA associatio

Bifidobacterium breve SC95
live bacteria post-digestion (live-dead flow cytometry) ([2]; 1000 μg SIgA/1e7 CFU): 57.8%
live bacteria post-digestion (live-dead flow cytometry) ([2]; no SIgA): no viable bacteria
Slope (CFU/% SIgA) ([2]; substrate LNnT): 223.1 CFU/% SIgA
Slope (CFU/% SIgA) ([2]; substrate lactose): −106.9 CFU/% SIgA
Slope (adherent CFU/% SIgA association) ([1]; substrate LNnT): 19516.0 adherent CFU/% SIgA associatio
Slope (adherent CFU/% SIgA association) ([1]; substrate all): 13289.0 adherent CFU/% SIgA associatio
Slope (adherent CFU/% SIgA association) ([1]; substrate glucose): 9083.0 adherent CFU/% SIgA associatio
Slope (adherent CFU/% SIgA association) ([1]; substrate lactose): 4617.0 adherent CFU/% SIgA associatio
ability to bind to pooled human milk SIgA (pooled human milk SIgA [3]): 16%
increase in SIgA binding when first grown on an HMO substrate (pooled human milk SIgA [3]): 45%

Bifidobacterium longum ssp. longum SC596
binding of a heterogeneous pool of SIgA (pooled human milk SIgA [4]): concentration dependent
association to SIgA when first grown on 2′FL (pooled human milk SIgA [4]): increased association to SIgA
live bacteria post-digestion (live-dead flow cytometry) ([2]; 1000 μg SIgA/1e7 CFU): 50.85%
live bacteria post-digestion (live-dead flow cytometry) ([2]; no SIgA): 29.05%
increased adherence to colonocytes with SIgA association ([1]; first grown on 2′FL): 4e3
Slope (adherent CFU/% SIgA association) ([1]; substrate 2'FL): 37.7 adherent CFU/% SIgA associatio
Slope (adherent CFU/% SIgA association) ([1]; substrate all): 27.1 adherent CFU/% SIgA associatio
Slope (adherent CFU/% SIgA association) ([1]; substrate glucose): 28.5 adherent CFU/% SIgA associatio
Slope (adherent CFU/% SIgA association) ([1]; substrate lactose): −13.3 adherent CFU/% SIgA associatio

Bifidobacterium pseudocatenulatum MP80
association to SIgA when first grown on 2′FL (pooled human milk SIgA [4]): increased association to SIgA
viable bacteria post-digestion ([2]; grown on glucose, 100 or 1000 μg SIgA/1e7 CFU): 4e6
viable bacteria post-digestion ([2]; grown on glucose, no SIgA): 2e5 CFU
slope of regression plot of viability with SIgA association ([2]; post-digestion, grown on glucose): 8.2e4 CFU per % population SIgA association
Slope (CFU/% SIgA) ([2]; substrate 2′FL): 51114 CFU/% SIgA
Slope (CFU/% SIgA) ([2]; substrate glucose): 82548 CFU/% SIgA
Slope (adherent CFU/% SIgA association) ([1]; substrate 2'FL): −50.6 adherent CFU/% SIgA associatio
Slope (adherent CFU/% SIgA association) ([1]; substrate all): 32.0 adherent CFU/% SIgA associatio
Slope (adherent CFU/% SIgA association) ([1]; substrate glucose): 14.2 adherent CFU/% SIgA associatio
ability to bind to pooled human milk SIgA (pooled human milk SIgA [3]): 40.3%
increase in SIgA binding when first grown on an HMO substrate (pooled human milk SIgA [3]): 61.7%

Lactobacillus acidophilus NCFM
slope m of association to SIgA post-digestion ([2]; grown on glucose): −8.9e3 CFU/% SIgA association
Slope (CFU/% SIgA) ([2]; substrate glucose): −8952 CFU/% SIgA
Slope (CFU/% SIgA) ([2]; substrate lactose): 38918 CFU/% SIgA
Slope (adherent CFU/% SIgA association) ([1]; substrate all): −3134.0 adherent CFU/% SIgA associatio
Slope (adherent CFU/% SIgA association) ([1]; substrate glucose): −3014.0 adherent CFU/% SIgA associatio
Slope (adherent CFU/% SIgA association) ([1]; substrate lactose): −3341.0 adherent CFU/% SIgA associatio

Lactobacillus reuteri DSM
loss of SIgA-bacteria complexes after deglycosylation (SIgA): over 7%
slope m of association to SIgA post-digestion ([2]; grown on glucose): −3.9e4 CFU/% SIgA association
Slope (CFU/% SIgA) ([2]; substrate glucose): −38517 CFU/% SIgA
Slope (CFU/% SIgA) ([2]; substrate lactose): 47155 CFU/% SIgA
Slope (adherent CFU/% SIgA association) ([1]; substrate all): −4652.0 adherent CFU/% SIgA associatio
Slope (adherent CFU/% SIgA association) ([1]; substrate glucose): −9455.0 adherent CFU/% SIgA associatio
Slope (adherent CFU/% SIgA association) ([1]; substrate lactose): 524.1 adherent CFU/% SIgA associatio

Lactobacillus rhamnosus ATCC 7469
binding of a heterogeneous pool of SIgA (pooled human milk SIgA [4]): concentration dependent
difference post-digestion with or without SIgA ([2]; grown in 1% glucose): no significant difference
Slope (CFU/% SIgA) ([2]; substrate 2′FL): −39446 CFU/% SIgA
Slope (CFU/% SIgA) ([2]; substrate glucose): −2121 CFU/% SIgA
Slope (CFU/% SIgA) ([2]; substrate lactose): −23719 CFU/% SIgA
slope of regression plot of adherent bacteria with SIgA association ([1]; lactose-grown): 37.7 adherent CFU per % population associated with SIgA
Slope (adherent CFU/% SIgA association) ([1]; substrate 2'FL): 333.3 adherent CFU/% SIgA associatio
Slope (adherent CFU/% SIgA association) ([1]; substrate glucose): −138.4 adherent CFU/% SIgA associatio
Slope (adherent CFU/% SIgA association) ([1]; substrate lactose): 456.6 adherent CFU/% SIgA associatio
decrease of IL-8 gene expression when first complexed with SIgA [5]: 4 fold
decrease of pIgR gene expression when first complexed with SIgA [5]: 4 fold
